According to patent US20250326744A1, “PIPERAZINE DERIVATIVE OR SALT THEREOF, AND PHARMACEUTICAL COMPOSITION” (priority 2022, published 2025):
Counter-ions that a name gives are not always drawn.

Columns and labels:
mexY (EC) strain = test: Efflux ability inhibition effect on drug efflux pump MexY (Test Examples 1 and 3): proliferation (OD595) of mexY (EC) strain with EM or LVFX at 1/4 MIC, EC75; format: cell-based, Escherichia coli; conditions: for EC75, mexY (EC) strain, EM: combined with EM at 1/4 MIC; for EC75, mexY (EC) strain, LVFX: combined with LVFX at 1/4 MIC
Procedure: The efflux ability inhibition effect of the test compound on the drug efflux pump was evaluated using the bacterial proliferative ability in the presence of EM or LVFX as an index.
EM is a macrolide antibacterial agent and is a drug that is discharged outside the bacteria by MexB and MexY LVFX is a quinolone antibacterial agent and is a drug that is discharged outside the bacteria by MexB and MexY In a case where the test compound has an efflux ability inhibitory ability against the drug efflux pump, the proliferation of bacteria is suppressed by the combined use of EM or LVFX and the test compound, as compared with the case where EM or LVFX is used alone.
A mutant strain (hereinafter, referred to as an “mexB (EC) strain”) obtained by transferring the genes of the main multidrug efflux system MexAB-OprM of Pseudomonas aeruginosa described in Nature, 2013, Vol. 500, pp. 102 to 106 as a plasmid into Escherichia coli strains in which the acrB and tolC genes of the multidrug efflux system AcrAB-TolC were deleted as described in Journal of Infection and Chemotherapy 2008, Vol. 14, pp. 23 to 29, and a gene transfer strain (hereinafter, referred to as an “mexY (EC) strain”) of another main multidrug efflux system MexXY-OprM of Pseudomonas aeruginosa were used for the evaluation of test compounds.
In the mexB (EC) strain, an expression level of MexB of the drug efflux pump is accelerated, and in the mexY (EC) strain, an expression level of MexY of the drug efflux pump is accelerated.
For culturing each Escherichia coli strain, a 96-well plate (amount of culture medium per well: 100 μL) was used and Luria-Bertani broth (LB) culture medium was used. The inoculation amount of the bacteria was set to 10^4 to 5 CFU/well.
The mexB (EC) strain and the mexY (EC) strain were cultured for 16 to 20 hours in a culture medium to which EM or LVFX and test compounds at various concentrations (0 to 800 μM) were added, and the proliferation of the bacterial strains was evaluated by optical turbidity at 595 nm (OD595). The concentration of the antibacterial agents (EM and LVFX) in the culture medium were each set to ¼ of the minimum inhibitory concentration (MIC) (hereinafter, referred to as ¼ MIC) of the single antibacterial agent.
The proliferation of bacteria in a case where the antibacterial agent was added at the concentration of ¼ MIC in a case where the test compound was not added was measured, and compared with the proliferation of bacteria in a case where the test compound was contained, and the lowest concentration of the test compound at which the proliferation was inhibited by 75% or more was defined as the drug efflux pump inhibitory ability of the test compound as 75% inhibitory effect concentration (EC75).
The drug efflux pump inhibitory ability of each test compound in a case of being used in combination with the antibacterial agent against the mexB (EC) strain and the mexY (EC) strain was evaluated as follows according to the value of EC75. • S: EC75≤[…] • A: 12.5 μM<EC75≤25 μM • B: 25 μM<EC75≤100 μM • C: […]
In the same manner as in Test Example 1, the efflux ability inhibition effect of the test compound on the drug efflux pump was evaluated using the bacterial proliferation ability in the presence of EM or LVFX as an index.

mexB (PA) strain = test: Combinational effect with antibacterial agent against Pseudomonas aeruginosa (Test Examples 2 and 4): mexB (PA) strain with LVFX, TC or AZT at 1/4 MIC, EC99; format: cell-based; conditions: for EC99, combinational effect with AZT, mexB (PA) / EC99, combinational effect with LVFX, mexB (PA) / EC99, combinational effect with TC, mexB (PA): mexB (PA) strain, Test Example 4; for EC99, combinational effect with AZT, mexB (PA) / EC99, mexB (PA), AZT: combined with AZT at 1/4 MIC; for EC99, combinational effect with LVFX, mexB (PA) / EC99, mexB (PA), LVFX: combined with LVFX at 1/4 MIC
Method in brief: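 EC99 denotes the minimum test-compound concentration (range 0–800 μM) that suppresses ≥99% of growth, measured by OD595, when combined with ¼ MIC levofloxacin (LVFX), tetracycline or aztreonam. The efflux-pump mutant mexB (PA), expressing mainly MexAB-OprM, was inoculated at 10^4–5 CFU/well in CAMHB for 16–20 h.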

S-3769 strain = test: Combinational effect with antibacterial agent against Pseudomonas aeruginosa (Test Examples 2 and 4): S-3769 strain with AMK or GM at 1/4 MIC, EC99; format: cell-based; conditions: for EC99, combinational effect with AMK, S-3769 strain / EC99, combinational effect with GM, S-3769 strain: Test Example 4
Method in brief: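 EC99, the lowest test-compound concentration inhibiting growth by ≥99% (OD595), was measured with aminoglycoside AMK or GM held at ¼ MIC. Strain S-3769, a MexY-overexpressing clinical isolate, was cultured in CAMHB at 10^4 to 5 CFU/well for 16–20 h; compound range 0–800 μM.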

[1] = Table 53, Test Example 3, same manner as Test Example 1
[2] = Table 51, Test Example 1, 16 to 20 hours culture, OD595
[3] = Table 52, Test Example 2, 16 to 20 hours culture, OD595

Row | SMILES | EC75, mexY (EC) strain, EM (mexY (EC) strain; [1]) | EC75, mexY (EC) strain, LVFX (mexY (EC) strain; [1]) | EC99, combinational effect with AZT, mexB (PA) (mexB (PA) strain) | EC99, combinational effect with LVFX, mexB (PA) (mexB (PA) strain) | EC99, combinational effect with TC, mexB (PA) (mexB (PA) strain; combined with TC at 1/4 MIC) | EC99, combinational effect with AMK, S-3769 strain (S-3769 strain; combined with AMK at 1/4 MIC) | EC99, combinational effect with GM, S-3769 strain (S-3769 strain; combined with GM at 1/4 MIC) | EC75, mexY (EC) strain, EM (mexY (EC) strain; [2]) | EC75, mexY (EC) strain, LVFX (mexY (EC) strain; [2]) | EC99, mexB (PA), AZT (mexB (PA) strain; [3]) | EC99, mexB (PA), LVFX (mexB (PA) strain; [3]) | EC99, mexB (PA), TC (mexB (PA) strain; Table 52, Test Example 2, combined with TC at 1/4 MIC, 16 to 20 hours culture, OD595) | EC99, S-3769 strain, AMK (S-3769 strain; Table 52, Test Example 2, combined with AMK at 1/4 MIC, 16 to 20 hours culture, OD595) | EC99, S-3769 strain, GM (S-3769 strain; Table 52, Test Example 2, combined with GM at 1/4 MIC, 16 to 20 hours culture, OD595)
1 | CSc1ccccc1CN1CCN(C(=O)[C@H](N)C2CCN(CCc3cc(Cl)ccc3-c3cccc(Cl)c3)CC2)CC1 [Example 552, Hydrobromide of (R)-2-amino-2-(1-(2-(3′,4-dichloro-[1,1-biphenyl]-2-yl)ethyl)piperidin-4-yl)-1-(4-(2-(methylthio)benzyl)piperazin-1-yl)ethan-1-one] | A (12.5 μM<EC75≤25 μM) | A (12.5 μM<EC75≤25 μM) | S (EC99≤12.5 μM) | S (EC99≤12.5 μM) | S (EC99≤12.5 μM) | B (25 μM<EC99≤100 μM) | S (EC99≤12.5 μM) | – | – | – | – | – | – | –
2 | CCOc1cccc(F)c1CN1CCN(C(=O)CN2CCC(C(N)Cc3ccccc3)CC2)CC1 (stereo not drawn) [Example 423, hydrochloride of 2-(4-(1-amino-2-phenylethyl)piperidin-1-yl)-1-(4-(2-ethoxy-6-fluorobenzyl)piperazin-1-yl)ethan-1-one] | – | – | – | – | – | – | – | B (25 μM<EC75≤100 μM) | A (12.5 μM<EC75≤25 μM) | C (100 μM<EC99) | C (100 μM<EC99) | B (25 μM<EC99≤100 μM) | C (100 μM<EC99) | C (100 μM<EC99)
3 | CSc1ccccc1CN1CCN(C(=O)[C@H](N)C2CCN(CCc3cc(Cl)ccc3-c3ccccc3Cl)CC2)CC1 [Example 555, Hydrobromide of (R)-2-amino-2-(1-(2-(2′,4-dichloro-[1,1-biphenyl]-2-yl)ethyl)piperidin-4-yl)-1-(4-(2-(methylthio)benzyl)piperazin-1-yl)ethan-1-one] | A (12.5 μM<EC75≤25 μM) | A (12.5 μM<EC75≤25 μM) | B (25 μM<EC99≤100 μM) | B (25 μM<EC99≤100 μM) | A (12.5 μM<EC99≤25 μM) | B (25 μM<EC99≤100 μM) | B (25 μM<EC99≤100 μM) | – | – | – | – | – | – | –
4 | O=C(CN1CCN(CCc2ccccc2)CC1)N1CCN(Cc2cccc3ccccc23)CC1 [Example 238] | – | – | – | – | – | – | – | B (25 μM<EC75≤100 μM) | B (25 μM<EC75≤100 μM) | B (25 μM<EC99≤100 μM) | B (25 μM<EC99≤100 μM) | – | – | –
5 | COc1ccccc1CN1CCN(C(=O)CN2CCC(C#Cc3ccccc3)CC2)CC1 [Example 405, Hydrochloride of 1-(4-(2-methoxybenzyl)piperazin-1-yl)-2-(4-(phenylethynyl)piperidin-1-yl)ethan-1-one] | – | – | – | – | – | – | – | B (25 μM<EC75≤100 μM) | B (25 μM<EC75≤100 μM) | B (25 μM<EC99≤100 μM) | A (12.5 μM<EC99≤25 μM) | – | – | –
6 | CCSc1cc(F)ccc1CN1CCN(C(=O)[C@H](N)C2CCN(CCc3cc(Cl)ccc3-c3ccccc3Cl)CC2)CC1 [Example 599, Hydrochloride of (R)-2-amino-2-(1-(2-(2′,4-dichloro-[1,1-biphenyl]-2-yl)ethyl)piperidin-4-yl)-1-(4-(2-(ethylthio)-4-fluorobenzyl)piperazin-1-yl)ethan-1-one] | A (12.5 μM<EC75≤25 μM) | – | S (EC99≤12.5 μM) | S (EC99≤12.5 μM) | S (EC99≤12.5 μM) | B (25 μM<EC99≤100 μM) | S (EC99≤12.5 μM) | – | – | – | – | – | – | –
7 | N[C@@H](C(=O)N1CCN(Cc2nccc3c2OCCO3)CC1)C1CCN(CCc2cc(Cl)ccc2-c2ccccc2)CC1 [Example 520, Hydrobromide of (R)-2-amino-2-(1-(2-(4-chloro-[1,1-biphenyl]-2-yl)ethyl)piperidin-4-yl)-1-(4-((2,3-dihydro-[1,4]dioxino[2,3-c]pyridin-5-yl)methyl)piperazin-1-yl)ethan-1-one] | A (12.5 μM<EC75≤25 μM) | A (12.5 μM<EC75≤25 μM) | C (100 μM<EC99) | C (100 μM<EC99) | C (100 μM<EC99) | B (25 μM<EC99≤100 μM) | C (100 μM<EC99) | – | – | – | – | – | – | –
8 | CCOc1cccc(F)c1CN1CCN(C(=O)[C@H](N)C2CC[N+](CCc3cc(Cl)ccc3-c3ccccc3)(CC(=O)[O-])CC2)CC1 (stereo partly drawn) [Example 567, Hydrobromide of (R)-2-(4-(1-amino-2-(4-(2-ethoxy-6-fluorobenzyl)piperazin-1-yl)-2-oxoethyl)-1-(2-(4-chloro-[1,1-biphenyl]-2-yl)ethyl)piperidin-4-ium-1-yl)acetate] | B (25 μM<EC75≤100 μM) | B (25 μM<EC75≤100 μM) | C (100 μM<EC99) | C (100 μM<EC99) | C (100 μM<EC99) | B (25 μM<EC99≤100 μM) | C (100 μM<EC99) | – | – | – | – | – | – | –
9 | O=C(CN1CCN(CCc2ccccc2)CC1)N1CCN(Cc2c(O)cccc2Cl)CC1 [Example 229, Hydrochloride of 1-(4-(2-chloro-6-hydroxybenzyl)piperazin-1-yl)-2-(4-phenethylpiperazin-1-yl)ethan-1-one] | – | – | – | – | – | – | – | B (25 μM<EC75≤100 μM) | B (25 μM<EC75≤100 μM) | B (25 μM<EC99≤100 μM) | B (25 μM<EC99≤100 μM) | – | – | –
10 | COc1ccccc1CN1CCN(C(=O)CN2CCN(CCc3ccc(F)cc3)CC2)CC1 [Example 277, 2-(4-(4-Fluorophenethyl)piperazin-1-yl)-1-(4-(2-methoxybenzyl)piperazin-1-yl) ethan-1-one and hydrochloride thereof] | – | – | – | – | – | – | – | B (25 μM<EC75≤100 μM) | B (25 μM<EC75≤100 μM) | B (25 μM<EC99≤100 μM) | B (25 μM<EC99≤100 μM) | – | – | –
